Measured values from patent US10300065B2, “Method of treating or prevention of atherothrombotic events in patients with history of myocardial infarction” (ASTRAZENECA AB, priority 2015, dated 2019).

Test system: patients with a history of myocardial infarction
Experiment: PEGASUS-TIMI 54 analysis by time from P2Y12 inhibitor withdrawal to randomization
Conditions: for Cor. heart dis. death, (%) / Fatal bleeding, (%) / Intracranial bleeding, (%) / Myocardial infarction, (%) / Stroke, (%) / TIMI Major Bleeding, (%) / TIMI Major or Minor Bleeding, (%) / All-cause mortality, HR / Cor. heart dis. death, HR / Fatal bleeding, HR / Intracranial bleeding, HR / Myocardial infarction, HR / Stroke, HR / TIMI Major Bleeding, HR / TIMI Major or Minor Bleeding, HR / All-cause mortality, (%): at 3 years
Text: Patients in PEGASUS-TIMI 54 were further categorized by time from last P2Y12 inhibitor (days: ≤30 days, 31-360, >360).

[1] = >30 days to ≤1 year from P2Y12 inhibitor withdrawal, ticagrelor 90 mg bid
[2] = >30 days to ≤1 year from P2Y12 inhibitor withdrawal, ticagrelor pooled vs. placebo
[3] = >30 days to ≤1 year from P2Y12 inhibitor withdrawal, ticagrelor pooled
[4] = pooled doses, withdrawal within 30 days
[5] = ≤30 days from P2Y12 inhibitor withdrawal, ticagrelor 60 mg bid vs. placebo
[6] = ≤30 days from P2Y12 inhibitor withdrawal, ticagrelor 60 mg bid
[7] = ≤30 days from P2Y12 inhibitor withdrawal, ticagrelor 90 mg bid vs. placebo
[8] = ≤30 days from P2Y12 inhibitor withdrawal, ticagrelor 90 mg bid
[9] = ≤30 days from P2Y12 inhibitor withdrawal, ticagrelor pooled vs. placebo
[10] = ≤30 days from P2Y12 inhibitor withdrawal, ticagrelor pooled

CCCSc1nc(N[C@@H]2C[C@H]2c2ccc(F)c(F)c2)c2nnn([C@@H]3C[C@H](OCCO)[C@@H](O)[C@H]3O)c2n1 [Ticagrelor, (1S,2S,3R,5S)-3-[7-{[(1R,2S)-2-(3,4-difluorophenyl)cyclopropyl]amino}-5-(propylthio)-3H-[1,2,3]-triazolo[4,5-d]pyrimidin-3-yl]-5-(2-hydroxyethoxy)cyclopentane-1,2-diol]
Cor. heart dis. death, (%) [1]: (1.4) %
Fatal bleeding, (%) [1]: (0.1) %
Intracranial bleeding, (%) [1]: (0.5) %
Myocardial infarction, (%) [1]: (4.2) %
Stroke, (%) [1]: (1.9) %
TIMI Major Bleeding, (%) [1]: (2.8) %
TIMI Major or Minor Bleeding, (%) [1]: (3.9) %
All-cause mortality, HR [2]: 0.88
Cor. heart dis. death, HR [2]: 0.70
Fatal bleeding, HR [2]: 0.57
Intracranial bleeding, HR [2]: 1.81
Myocardial infarction, HR [2]: 0.85
Stroke, HR [2]: 0.91
TIMI Major Bleeding, HR [2]: 2.89
TIMI Major or Minor Bleeding, HR [2]: 3.11
All-cause mortality, (%) [3]: (4.3) %
Cor. heart dis. death, (%) [3]: (1.4) %
Fatal bleeding, (%) [3]: (0.2) %
Intracranial bleeding, (%) [3]: (0.5) %
Myocardial infarction, (%) [3]: (4.4) %
Stroke, (%) [3]: (1.7) %
TIMI Major Bleeding, (%) [3]: (2.7) %
TIMI Major or Minor Bleeding, (%) [3]: (3.8) %
HR for cardiovascular death, myocardial infarction, or stroke vs. placebo (doses pooled, withdrawal ≤30 days, beyond 90 days): 0.76
HR for cardiovascular death, myocardial infarction, or stroke vs. placebo (doses pooled, withdrawal ≤30 days, first 90 days after randomization): 0.54
reduction in the risk of developing a subsequent atherothrombotic event (more than one year after withdrawal of previous dual antiplatelet therapy): did not experience a reduction
HR for cardiovascular death, myocardial infarction, or stroke vs. placebo (pooled doses, time from last P2Y12 inhibitor 31-360 days): 0.86
HR for cardiovascular death, myocardial infarction, or stroke vs. placebo (pooled doses, time from last P2Y12 inhibitor >360 days): 1.01
HR for cardiovascular death, myocardial infarction, or stroke vs. placebo (pooled doses, time from last P2Y12 inhibitor ≤30 days): 0.73
HR for cardiovascular death vs. placebo [4]: 0.78
HR for myocardial infarction vs. placebo [4]: 0.72
HR for stroke vs. placebo [4]: 0.64
HR for cardiovascular death, myocardial infarction, or stroke vs. placebo (pooled doses, ≤30 days of stopping, qualifying MI <2 years prior to randomization): 0.73
HR for cardiovascular death, myocardial infarction, or stroke vs. placebo (pooled doses, ≤30 days of stopping, qualifying MI ≥2 years prior to randomization): 0.71
All-cause mortality, HR [5]: 0.80
Cor. heart dis. death, HR [5]: 0.78
Fatal bleeding, HR [5]: 2.15
Intracranial bleeding, HR [5]: 1.53
Myocardial infarction, HR [5]: 0.78
Stroke, HR [5]: 0.64
TIMI Major Bleeding, HR [5]: 3.3
TIMI Major or Minor Bleeding, HR [5]: 3.43
All-cause mortality, (%) [6]: (4.3) %
Cor. heart dis. death, (%) [6]: (1.5) %
Fatal bleeding, (%) [6]: (0.4) %
Intracranial bleeding, (%) [6]: (0.8) %
Myocardial infarction, (%) [6]: (5.2) %
Stroke, (%) [6]: (1.5) %
TIMI Major Bleeding, (%) [6]: (2.6) %
TIMI Major or Minor Bleeding, (%) [6]: (4.1) %
All-cause mortality, HR [7]: 1.02
Cor. heart dis. death, HR [7]: 0.67
Fatal bleeding, HR [7]: 2.25
Intracranial bleeding, HR [7]: 2.07
Myocardial infarction, HR [7]: 0.67
Stroke, HR [7]: 0.64
TIMI Major Bleeding, HR [7]: 3.44
TIMI Major or Minor Bleeding, HR [7]: 3.57
All-cause mortality, (%) [8]: (5.1) %
Cor. heart dis. death, (%) [8]: (1.1) %
Fatal bleeding, (%) [8]: (0.2) %
Intracranial bleeding, (%) [8]: (0.7) %
Myocardial infarction, (%) [8]: (4.6) %
Stroke, (%) [8]: (1.3) %
TIMI Major Bleeding, (%) [8]: (2.4) %
TIMI Major or Minor Bleeding, (%) [8]: (3.8) %
All-cause mortality, HR [9]: 0.91
Cor. heart dis. death, HR [9]: 0.72
Fatal bleeding, HR [9]: 2.2
Intracranial bleeding, HR [9]: 1.79
Myocardial infarction, HR [9]: 0.72
Stroke, HR [9]: 0.64
TIMI Major Bleeding, HR [9]: 3.36
TIMI Major or Minor Bleeding, HR [9]: 3.50
All-cause mortality, (%) [10]: (4.7) %
Cor. heart dis. death, (%) [10]: (1.3) %
Fatal bleeding, (%) [10]: (0.3) %
Intracranial bleeding, (%) [10]: (0.7) %
Myocardial infarction, (%) [10]: (4.9) %
Stroke, (%) [10]: (1.4) %
TIMI Major Bleeding, (%) [10]: (2.5) %
TIMI Major or Minor Bleeding, (%) [10]: (4.0%
